Source: patent publication US20210236494A1, “THERAPEUTIC COMBINATION” (Oncologica UK Ltd., priority 2018, published 2021)

Assays:
[1] = system: HBEpC bronchial epithelial primary cells; assay: Western blotting of whole cell extracts; assay type: cell-based, human
Procedure: (§1) In addition, whole cell extracts (WCE) were prepared by cell lysis in modified RIPA buffer (50 mmol/L Tris-Cl pH 7.4, 300 mmol/L NaCl, 0.1% NP40, 1% Triton X-100, 0.5% sodium deoxycholate, 0.1% SDS, 5 mmol/L EDTA, 1 mmol/L EGTA, 100 mmol/L sodium fluoride and 1 mmol/L sodium orthovanadate) followed by sonication for 10 seconds. These were analysed by Western Blotting, in which fifty micrograms of protein was loaded in each lane, separated by 4-20% SDS-PAGE, and transferred by semidry electroblotting onto Hybond C Extra nitrocellulose membranes (GE Healthcare, Buckinghamshire, UK).
(§2) Primary antibodies used were: caspase 3 (NB500-210, Novus Biologicals); caspase 9 (sc-17784, Santa Cruz Biotechnology); Cdc7 (K0070-3, MBL International); cyclin A (sc-596, Santa Cruz Biotechnology); cyclin E (MS-870-P, NeoMarkers); Mcm2 pS53 (A300-756A, Bethyl Laboratories); PCNA (610665, BD Biosciences); Rb (554136, BD Biosciences); Rb pS807/811 (9308, Cell Signaling Technologies); TBP (A301-229A, Bethyl Laboratories).
(§3) Blocking, antibody incubations (using various antibodies including anti-Cdc7 or anti-Mcm2 pS53 antibodies), and washing steps were performed.
(§4) Cells were harvested and apoptosis was monitored by phase contrast microscopy, flow cytometry and western blot detection of pro-caspase 3 and 9 cleavage.

[2] = system: IMR90 mesenchymal diploid fibroblasts; assay: Western blotting of whole cell extracts; assay type: cell-based, human
Procedure: as §1, §2, §3, §4

HBEpC cells [3] = assay: Flow cytometry of DNA content (cell cycle, sub G1); assay type: cell-based, human
Procedure: (§5) After 24 hours medium was removed and cells were retransfected with control (20 nmol/L), CDC7 (10 nmol/L) plus control (10 nmol/L), or CDC7 (10 nmol/L) plus p53 (9 nmol/L duplex plus 1 nmol/L SMARTpool) siRNA mixtures. Cells were harvested at the indicated time points after the second transfection. Efficient knockdown was assessed by qRT-PCR and/or Western blot.
(§6) To test this hypothesis, HBEpC bronchial epithelial cells and IMR90 mesenchymal fibroblasts were transfected with CDC7-siRNA or control-siRNA 48 hours prior to treatment with 500 nM paclitaxel or DMSO and then cultured for a further 24 hours. Cells were harvested and apoptosis was monitored by phase contrast microscopy, flow cytometry and western blot detection of pro-caspase 3 and 9 cleavage.

IMR90 cells [4] = assay: Flow cytometry of DNA content (cell cycle, sub G1); assay type: cell-based, human
Procedure: as §5, §6

HBEpC cells [5] = assay: Apoptosis monitored by phase contrast microscopy; assay type: cell-based, human; details: siRNA (CDC7 or control) 48 hours prior to 500 nM paclitaxel for 24 hours
Procedure: as §6

IMR90 cells [6] = assay: Apoptosis monitored by phase contrast microscopy; assay type: cell-based, human; details: siRNA (CDC7 or control) 48 hours prior to 500 nM paclitaxel for 24 hours
Procedure: as §6

CDC7 mRNA in HBEpC cells = assay: qRT-PCR of CDC7 mRNA after CDC7-siRNA transfection; assay type: cell-based, human; details: 72 hours post-transfection, 25 nM siRNA
Description: (§7) Cells were then transfected with CDC7-siRNA to inhibit CDC7 expression. Specifically, CDC7 expression was inhibited with custom double-stranded RNA oligos (5′-[…]-3′ (SEQ ID NO 1) and 5′-[…]-3′ (SEQ ID NO 2) Thermo Scientific), using previously described methods (Tudzarove S. et al 2010 supra.). Non-targeting siRNA was used as a negative control (12935-300, Invitrogen). CDC7 or control siRNA duplexes were transfected using Lipofectamine 2000 (11668019, Invitrogen) according to the manufacturer's recommendations at an optimized concentrations of 10 nM for IMR90 and 25 nM for HBEpC.
(§8) At 72 hours post-transfection, CDC7 mRNA levels were measured using qPCR in order to evaluate the efficiency of transfection with CDC7. In particular, Total RNA was isolated from cells with the PureLink Microto-Midi Total RNA Purification System (Invitrogen) according to the manufacturer's instructions. Total RNA (40 ng) was reverse transcribed, and real-time PCR was performed using a SuperScript III Platinum SYBR Green OneStep qRTPCR kit (Invitrogen) following the manufacturer's instructions. Reactions were carried out in an Eppendorf Mastercycler ep Realplex Real-Time PCR System (Eppendorf, Cambridge, UK), and results were analyzed with Realplex v1.5 software (Eppendorf). […]

CDC7 mRNA in IMR90 cells = assay: qRT-PCR of CDC7 mRNA after CDC7-siRNA transfection; assay type: cell-based, human; details: IMR90, 72 hours post-transfection, 10 nM siRNA
Description: as §7, §8

HBEpC cells [7] = assay: Cell population growth by phase contrast microscopy; assay type: cell-based, human; details: 144 hour time course, plateau 48 to 120 hours post-transfection
Procedure: (§9) Phase contrast microscopy was performed over a period of 144 hours with an inverted Aziover 200m (Carl Zeiss, Welwyn Garden City, Uk) and Axiovision software to assess cell population growth.

IMR90 cells [8] = assay: as above; assay type: cell-based, human; details: IMR90, 144 hour time course; plateau 48 to 120 hours post-transfection
Procedure: as §9

[9] = system: SKOV-3, Saos-2, BT-549 and NCI-H322M cells; assay: Apoptosis by morphology and western blot of pro-caspase 3 and 9 cleavage in cancer cells; assay type: cell-based; details: 96 hours post-transfection; cancer cells lacking functional p53
Procedure: On this basis, RNAi was then used to investigate the effects of Cdc7 loss in epithelial and mesenchymal cancer cell lines deficient in functional p53. In this experiment, SKOV-3 ovarian carcinoma cells (HTB-77, ATCC) and Saos-2 osteosarcoma cells (HTB-85, ATCC) in McCoy's 5A medium (26600, Invitrogen) supplemented with 15% FBS, BT-549 mammary ductal carcinoma cells (HTB-122, ATCC) in RPMI-1640 medium (52400, Invitrogen) supplemented with 10% FBS and 10 μg/ml insulin (10516, Sigma); and NCI-H322M bronchioalveolar carcinoma cells (95111734, ECACC) in RPMI-1640 medium were used.
Cells were transfected with siRNA as described in Example 1 and the effects on mRNA expression, western blotting and cell population growth were assessed also as described in Example 1.

[10] = siRNA (CDC7 or control) 48 hours prior to 500 nM paclitaxel for 24 hours
[11] = IMR90, siRNA (CDC7 or control) 48 hours prior to 500 nM paclitaxel for 24 hours
[12] = IMR90, 72 hours post-transfection

Molecule | pro-caspase 3 and 9 levels [1, 10] | pro-caspase 3 and 9 levels [2, 11] | percentage of cells with less than 2C (sub G1) DNA content (HBEpC cells [3]; [10]) [%] | percentage of cells with less than 2C (sub G1) DNA content (IMR90 cells [4]; [11]) [%] | cell morphology (apoptosis) (HBEpC cells [5]) | cell morphology (apoptosis) (IMR90 cells [6]) | CDC7 mRNA levels reduced relative to control siRNA transfected (CO) cells (CDC7 mRNA in HBEpC cells) [%] | CDC7 mRNA levels reduced relative to control siRNA transfected (CO) cells (CDC7 mRNA in IMR90 cells) [%] | CDC7 protein levels ([1]; 72 hours post-transfection) | Mcm2 phosphorylation at Ser-53 ([1]; 72 hours post-transfection) | CDC7 protein levels [2, 12] | Mcm2 phosphorylation at Ser-53 [2, 12] | cell proliferation (cell numbers) (HBEpC cells [7]) | cell proliferation (cell numbers) (IMR90 cells [8]) | cell cycle distribution (HBEpC cells [3]; 72 hours post-transfection) | cells with less than 2C (sub G1) DNA content (HBEpC cells [3]; Cdc7-depleted alone) | cell cycle distribution (IMR90 cells [4]; [12]) | cells with less than 2C (sub G1) DNA content (IMR90 cells [4]; IMR90, Cdc7-depleted alone) | apoptosis (morphology, cleavage of pro-caspases 3 and 9 in WCE) [9]
CC(=O)O[C@H]1C(=O)[C@@]2(C)[C@H]([C@H](OC(=O)c3ccccc3)[C@]3(O)C[C@H](OC(=O)[C@H](O)[C@@H](NC(=O)c4ccccc4)c4ccccc4)C(C)=C1C3(C)C)[C@]1(OC(C)=O)CO[C@@H]1C[C@@H]2O [paclitaxel] | marked reduction | marked reduction | 30 | 35 | morphological signs of apoptosis | morphological signs of apoptosis | – | – | – | – | – | – | – | – | – | – | – | – | –
CDC7-siRNA: custom double-stranded RNA oligos (5′-GCUCAGCAGGAAAGGUGUUUU-3′ SEQ ID NO 1 and 5′-AACACCUUUCCUGCUGAGCUU-3′ SEQ ID NO 2) inhibiting CDC7 expression (RNA, backbone not given here) | – | – | – | – | – | – | 89 | 87 | undetectable | abolished | undetectable | abolished | cessation of cell proliferation | cessation of cell proliferation | accumulation consistent with a G1 arrest | not detected | accumulation consistent with a G1 arrest | not detected | Induction of apoptosis
